According to US20140213576A1, “NOVEL COMPOUND USEFUL FOR THE TREATMENT OF DEGENERATIVE AND INFLAMMATORY DISEASES” (GALAPAGOS NV, priority 2013, published 2014):
Values joined by “and” are separate entries in the source; they are usually repeats but may differ in a detail not shown here. Equal entries are not always repeated.

How the values were obtained:
[1] = molecular target: T1, Recombinant human JAK3 catalytic domain (Homo sapiens, UniProt P52333); assay: JAK3 inhibition assay (polyGT substrate); format: biochemical; settings: 1 μM ATP, individual determinations, read-out: IC50 against JAK3
T1 construct: Recombinant human JAK3 catalytic domain (amino acids 781-1124; catalog number PV3855); purchased Invitrogen PV3855
Description: Recombinant human JAK3 catalytic domain (amino acids 781-1124; catalog number PV3855) was purchased from Invitrogen. 0.5 ng JAK3 protein was incubated with 2.5 μg polyGT substrate (Sigma catalog number P0275) in kinase reaction buffer (25 mM Tris pH 7.5, 0.5 mM EGTA, 10 mM MgCl2, 2.5 mM DTT, 0.5 mM Na3VO4, 5 mM b-glycerolphosphate, 0.01% Triton X-100, 1 μM non-radioactive ATP, 0.25 μCi ^33P-gamma-ATP (GE Healthcare, catalog number AH9968) final concentrations) with or without 5 μL containing test compound or vehicle (DMSO, 1% final concentration), in a total volume of 25 μL, in a polypropylene 96-well plate (Greiner, V-bottom). […]
6005177) using a cell harvester (Perkin Elmer). […] 40 μL/well of Microscint-20 was added, the top of the plates was sealed and readout was performed using the Topcount (Perkin Elmer). Kinase activity was calculated by subtracting counts per min (cpm) obtained in the presence of a positive control inhibitor (10 μM staurosporine) from cpm obtained in the presence of vehicle. The ability of a test compound to inhibit this activity was determined as:
Percentage inhibition=((cpm determined for sample with test compound present−cpm determined for sample with positive control inhibitor) divided by (cpm determined in the presence of vehicle−cpm determined for sample with positive control inhibitor))*100. […]

[2] = molecular target: T2, JAK1 (Homo sapiens, UniProt P23458); assay: JAK1 Ki determination assay; format: biochemical; settings: Lineweaver-Burk, varying ATP, Ulight-JAK-1 peptide; read-out: Ki against JAK1
T2 construct: Recombinant human JAK1 (catalytic domain, amino acids 866-1154; catalog number PV4774); purchased Invitrogen PV4774
Description: For the determination of Ki, different amounts of compound were mixed with the enzyme and the enzymatic reaction was followed as a function of ATP concentration. The Ki was determined by means of double reciprocal plotting of Km vs compound concentration (Lineweaver-Burk plot). 1 ng of JAK1 (Invitrogen, PV4774) is used in the assay. The substrate was 50 nM Ulight-JAK-1 (Tyr1023) Peptide (Perkin Elmer, TRF0121) The reaction is performed in 25 mM MOPS pH 6.8, 0.01%, 2 mM DTT, 5 mM MgCl2 Brij-35 with varying concentrations of ATP and compound. Phosphorylated substrate was measured using an Eu-labeled anti-phosphotyrosine antibody PT66 (Perkin Elmer, AD0068) as described in 1.1.2. Readout was performed on the envision (Perkin Elmer) with excitation at 320 nm and emission followed at 615 nm and 665 nm.

[3] = test system: IL-6-induced STAT1 phosphorylation; assay: Whole blood assay, IL-6 stimulation, phospho-STAT1 by FACS; format: cell-based; settings: human whole blood, CD4+ cells, 9 different donors
Description: In addition, a flow cytometry analysis was performed to establish JAK1 over JAK2 compound selectivity ex vivo using human whole blood. Therefore, blood was taken from human volunteers who gave informed consent. Blood was then equilibrated for 30 min at 37° C. under gentle rocking, then aliquoted in Eppendorf tubes. Compound was added at different concentrations and incubated at 37° C. for 30 min under gentle rocking and subsequently stimulated for 20 min at 37° C. under gentle rocking with interleukin 6 (IL-6) for JAK1-dependent pathway stimulation or GM-CSF for JAK2-dependent pathway stimulation. Phospho-STAT1 and phospho-STAT5 were then evaluated using FACS analysis.
For IL-6-stimulated increase of Signal Transducers and Activators of Transcription 1 (pSTAT1) phosphorylation in white blood cell, human whole blood, drawn from human volunteers who gave informed consent, was ex vivo treated with the compound for 30 min and subsequently stimulated for 20 min with IL-6. The increase in phosphorylation of STAT1 by IL-6 in lymphocytes was measured using anti phospho-STAT1 antibody by FACS. […]
Cells are then washed once with 1×PBS and analyzed on a FACSCanto II flow cytometer (BD Biosciences).
50,000 total events were counted and Phospho-STAT1 positive cells were measured after gating on CD4+ cells, in the lymphocyte gate. […]

T1 sequence (P52333 781-1124): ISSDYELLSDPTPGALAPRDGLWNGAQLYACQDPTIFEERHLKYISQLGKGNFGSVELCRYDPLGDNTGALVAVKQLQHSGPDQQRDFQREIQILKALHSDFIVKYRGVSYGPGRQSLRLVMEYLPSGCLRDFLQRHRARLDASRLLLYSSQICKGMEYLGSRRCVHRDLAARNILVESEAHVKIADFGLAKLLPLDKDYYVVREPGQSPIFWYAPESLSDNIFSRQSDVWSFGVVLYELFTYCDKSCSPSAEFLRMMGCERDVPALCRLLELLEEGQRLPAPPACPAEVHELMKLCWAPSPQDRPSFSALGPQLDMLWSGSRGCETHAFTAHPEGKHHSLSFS
T2 sequence (P23458 866-1154): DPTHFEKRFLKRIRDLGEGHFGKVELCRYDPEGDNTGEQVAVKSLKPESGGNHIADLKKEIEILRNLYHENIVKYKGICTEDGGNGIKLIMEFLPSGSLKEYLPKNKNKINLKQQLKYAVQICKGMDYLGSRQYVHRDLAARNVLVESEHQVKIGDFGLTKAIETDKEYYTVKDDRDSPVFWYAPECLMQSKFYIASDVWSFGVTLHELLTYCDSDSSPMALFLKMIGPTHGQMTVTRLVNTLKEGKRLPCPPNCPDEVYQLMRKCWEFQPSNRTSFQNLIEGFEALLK

IC50 [1]: 1320 nM and 523 nM and 460 nM and 345 nM and 689 nM and 685 nM and 515 nM and 324 nM and 537 nM
Ki [2]: 9.21 nM
IC50 [3]: 498 nM
SMILES: CCc1cc(C2CN(S(C)(=O)=O)C2)ncc1N(C)c1cc2c(cn1)ncn2C [Compound 1, [4-Ethyl-6-(1-methanesulfonyl-azetidin-3-yl)-pyridin-3-yl]-methyl-(1-methyl-1H-imidazo[4,5-d]pyridin-6-yl)-amine]
